Among the data in ChEMBL document CHEMBL1136034, “Selective urokinase-type plasminogen activator (uPA) inhibitors. Part 1: 2-Pyridinylguanidines” (Bioorg Med Chem Lett, 2002) are inhibition and Ki values, retold here.

Structures are written as SMILES.

The target of test [1] is T1, Tissue-type plasminogen activator (Homo sapiens, UniProt P00750). Kind of test: Inhibition of human tissue plasminogen activator stimulator at 1 mM.
Target sequence in this assay (P00750 36-562 limits assumed): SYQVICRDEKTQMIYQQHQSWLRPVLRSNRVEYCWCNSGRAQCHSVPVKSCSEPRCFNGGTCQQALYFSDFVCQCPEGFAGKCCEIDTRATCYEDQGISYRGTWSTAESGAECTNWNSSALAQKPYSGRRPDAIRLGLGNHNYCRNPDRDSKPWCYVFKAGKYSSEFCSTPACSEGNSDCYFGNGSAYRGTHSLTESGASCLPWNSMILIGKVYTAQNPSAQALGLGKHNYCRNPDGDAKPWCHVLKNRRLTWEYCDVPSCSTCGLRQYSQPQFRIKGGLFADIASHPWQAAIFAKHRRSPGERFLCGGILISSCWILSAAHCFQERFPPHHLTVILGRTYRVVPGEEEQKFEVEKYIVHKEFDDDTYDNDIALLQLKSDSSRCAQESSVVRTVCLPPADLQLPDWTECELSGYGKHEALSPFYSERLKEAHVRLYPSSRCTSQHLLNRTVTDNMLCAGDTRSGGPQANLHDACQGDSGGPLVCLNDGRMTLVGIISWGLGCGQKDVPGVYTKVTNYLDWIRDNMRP
For test [2], the target named is T2, Plasminogen (Homo sapiens, UniProt P00747). The test is described as follows: Ability to inhibit human plasmin using Chromozym-PL as substrate.
For test [3], the target named is T3, Urokinase-type plasminogen activator (Homo sapiens, UniProt P00749). The test is described as follows: In vitro inhibition of HWMT human urokinase Plasminogen activator.
Test [4] concerns the target T2, Plasminogen. The test is described as follows: Inhibition of human plasmin with Chromozym-PL at 1 mM.
The target in test [5] is T3, Urokinase-type plasminogen activator. The test is described as follows: Ability to inhibit microPa (calbiochem) and S-2444 (quadratech) as substrate at concentration of 30 uM.
In test [6] the target is T1, Tissue-type plasminogen activator. The test is described as follows: Ability to inhibit human tissue plasminogen activator stimulator at concentration of 30 uM.
Target sequence in this assay (P00750 36-562 limits assumed): as above
Test [7] shares this target. Kind of test: Ability to inhibit human tissue plasminogen activator stimulator at concentration of 1 uM.
Target sequence in this assay (P00750 36-562 limits assumed): as above
For test [8], the target named is T2, Plasminogen. Kind of test: Ability to inhibit human plasmin using Chromozym-PL as substrate at concentration of 1 uM.
The target of test [9] is T3, Urokinase-type plasminogen activator. The test is described as follows: Ability to inhibit microPa (calbiochem) and S-2444 (quadratech) as substrate at concentration of 1 uM.
Test [10] has the same target. The test is described as follows: Ability to inhibit microPa (calbiochem) and S-2444 (quadratech) as substrate at concentration of 100 uM.
Test [11] has as its target T2, Plasminogen. The test is described as follows: Ability to inhibit human plasmin using Chromozym-PL as substrate at concentration of 30 uM.
Test [12] addresses T1, Tissue-type plasminogen activator. The test is described as follows: Ability to inhibit human tissue plasminogen activator stimulator at concentration of 100 uM.
Target sequence in this assay (P00750 36-562 limits assumed): as above
Test [13] has the same target. Kind of test: Ability to inhibit human tissue plasminogen activator stimulator at concentration of 1 mM.
Target sequence in this assay (P00750 36-562 limits assumed): as above
For test [14] the target is unchanged. Kind of test: Ability to inhibit human tissue plasminogen activator stimulator.
Target sequence in this assay (P00750 whole entry): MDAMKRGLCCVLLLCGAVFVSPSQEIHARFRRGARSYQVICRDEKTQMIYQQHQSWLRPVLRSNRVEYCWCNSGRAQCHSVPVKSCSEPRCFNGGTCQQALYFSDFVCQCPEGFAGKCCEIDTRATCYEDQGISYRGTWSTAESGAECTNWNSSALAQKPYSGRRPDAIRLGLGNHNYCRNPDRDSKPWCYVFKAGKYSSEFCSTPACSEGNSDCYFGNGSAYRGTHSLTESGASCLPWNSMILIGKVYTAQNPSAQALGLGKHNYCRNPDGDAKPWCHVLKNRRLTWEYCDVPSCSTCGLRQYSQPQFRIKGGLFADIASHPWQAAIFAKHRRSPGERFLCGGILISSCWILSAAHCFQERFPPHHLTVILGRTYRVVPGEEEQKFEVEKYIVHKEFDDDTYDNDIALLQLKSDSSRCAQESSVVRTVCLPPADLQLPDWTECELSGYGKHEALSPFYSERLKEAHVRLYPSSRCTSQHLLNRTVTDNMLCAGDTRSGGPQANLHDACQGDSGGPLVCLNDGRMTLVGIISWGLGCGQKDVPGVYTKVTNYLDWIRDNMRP

T2 sequence (P00747 97-580 limits assumed): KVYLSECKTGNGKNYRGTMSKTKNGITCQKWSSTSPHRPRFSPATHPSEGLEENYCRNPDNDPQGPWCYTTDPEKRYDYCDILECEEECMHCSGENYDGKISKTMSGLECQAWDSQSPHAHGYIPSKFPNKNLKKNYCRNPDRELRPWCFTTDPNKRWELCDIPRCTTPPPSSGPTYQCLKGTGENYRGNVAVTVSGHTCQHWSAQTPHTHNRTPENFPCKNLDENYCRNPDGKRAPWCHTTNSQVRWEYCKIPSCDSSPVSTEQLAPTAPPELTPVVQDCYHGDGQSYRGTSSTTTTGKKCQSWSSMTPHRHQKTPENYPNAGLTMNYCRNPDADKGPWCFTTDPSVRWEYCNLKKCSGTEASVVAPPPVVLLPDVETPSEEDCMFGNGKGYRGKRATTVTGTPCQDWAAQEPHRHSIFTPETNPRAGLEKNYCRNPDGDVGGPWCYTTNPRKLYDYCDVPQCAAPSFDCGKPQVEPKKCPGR
T2 sequence (P00747 581-810 limits assumed): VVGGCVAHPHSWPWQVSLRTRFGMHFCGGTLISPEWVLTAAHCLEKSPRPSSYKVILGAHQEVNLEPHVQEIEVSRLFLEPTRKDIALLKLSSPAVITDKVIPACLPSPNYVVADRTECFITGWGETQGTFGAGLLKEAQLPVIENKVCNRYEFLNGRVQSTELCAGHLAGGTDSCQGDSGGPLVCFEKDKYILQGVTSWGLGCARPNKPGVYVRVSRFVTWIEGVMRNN

The term inhibition denotes the share of the control response that was lost under treatment. A lower inhibition goes with little suppression. Usually Ki stands for a dissociation constant, usually derived from enzyme kinetics or from competition with a known ligand. Low values mean a stronger hold on the target, high ones a looser hold on the target. In the case of `Cc1c(Cl)cnc(N=C(N)N)c1Cl`, the inhibition in [1] is below 50%. The same molecule showed an inhibitory constant (Ki) at Plasminogen [2] of 176 µM.
With `N=C(N)Nc1ccc(Br)cn1`, the inhibition (in test [1]; against Plasminogen [4]) was below 50% each time. The molecule further came in with a Ki in [3] of 3.13 µM.
Turning to `N=C(N)Nc1ccncc1`, the inhibition in test [5] and in test [6] was below 50% each time. This molecule also yielded a Ki at Plasminogen [2] of 16.9 µM.
In [1], `COc1cccnc1N=C(N)N` registered an inhibition below 50%. Moreover, the inhibitory constant (Ki) at Plasminogen [2] is below 232 µM.
For `NC(N)=Nc1ncc(Cl)cc1Cl`, the inhibition constant (Ki) in [3] amounted to 5.47 µM.
Regarding `N=C(N)Nc1ccccn1`, the inhibition (in test [7]; on Plasminogen [8]) was below 50% in each case. In test [3], this molecule gave a Ki of 29.5 µM.
For `N=C(N)Nc1ccncn1`, the inhibition (in [7]; against Plasminogen [8]; in test [9]) was below 50% throughout.
With `N=C(N)Nc1cnccn1`, the inhibition (in test [7]; at Plasminogen [8]; in [9]) was below 50% throughout.
Consider `N=C(N)Nc1cccnn1`, for which the inhibition (in [10]; on Plasminogen [11]; in test [12]) was below 50% in each case.
Turning to `COc1ccnc(NC(=N)N)c1`, the inhibition (in test [1]; against Plasminogen [4]) was below 50% throughout.
Consider `Cc1ccc(NC(=N)N)nc1`, for which, in test [1], the inhibition is below 50%. In test [3], this molecule displayed a Ki of 32.3 µM.
With `N=C(N)Nc1cc(-c2ccccc2)ccn1`, the inhibition was 54% in test [1] and below 50% on Plasminogen [4].
In the case of `N=C(N)Nc1cccnc1`, the inhibition (in [7]; at Plasminogen [8]; in [9]) was below 50% in each case.
`Cc1cccnc1N=C(N)N`: the inhibition (in test [13]; against Plasminogen [4]) was below 50% throughout. The molecule also registered an inhibitory constant (Ki) in [3] of 37.7 µM.
In turn, `N=C(N)Nc1ncc(Cl)cc1Br` yielded an inhibition at Plasminogen [4] below 50%.
As to `N=C(N)Nc1ncccn1`, the inhibition (in test [7]; against Plasminogen [8]) was below 50% each time. In [3], the Ki stood at 292 µM.
For the molecule `N=C(N)Nc1ccc(Cl)cn1`, the inhibition (in [1]; on Plasminogen [4]) was below 50% in each case.
Regarding `NC(N)=Nc1ncc(Cl)cc1Br`, in [14], affinity was put at a Ki of 272 µM.
Turning to `N=C(N)Nc1ncc(C(F)(F)F)cc1Cl`, the inhibition (in test [1]; against Plasminogen [4]) was below 50% each time.
As to `Cc1cccc(N=C(N)N)n1`, the inhibition (in test [1]; against Plasminogen [4]) was below 50% in each case. The molecule further yielded a Ki in test [3] of 173 µM.
For `N=C(N)Nc1ncc(Br)cc1Cl`, the inhibition (in test [1]; at Plasminogen [4]) was below 50% throughout.
With `NC(N)=Nc1ncccc1O`, affinity in [3] was put at a Ki of 147 µM.
With `N=C(N)Nc1ncccc1O`, the inhibition (in test [1]; on Plasminogen [4]) was below 50% in each case.
For the molecule `Cc1ccnc(NC(=N)N)c1`, the inhibition (in test [13]; on Plasminogen [4]) was below 50% in each case. Also, in test [3], the Ki was found to be 83.8 µM.
For `NC(N)=Nc1ncc(Br)cc1Cl`, in test [3], the inhibition constant Ki is 2.9 µM.
With `N=C(N)Nc1ccc(Cl)cc1`, in test [13], the inhibition is below 50%. On Plasminogen [2], this molecule came in with a Ki below 50 µM.
With `N=C(N)Nc1ncc(Cl)cc1Cl`, the inhibition (in test [1]; at Plasminogen [4]) was below 50% each time.
